Patent US20250179059A1 (The Regents of the University of California, priority 2021, published 2025)

How the values were obtained:
[1] = target: T1, human BRD4 bromodomain II (Homo sapiens, UniProt O60885); assay: Bromodomain binding assay (AlphaScreen), BRD4 BDII; conditions: BRD4 BDII AlphaScreen assay; read-out: BRD4 BD2 IC50
T1 construct: human BRD4 bromodomain II [based on Genbank NM_058243, residues 349-460]; host or cells: E. coli
Method in brief: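 Tagged BRD4 BDI or BDII constructs, expressed in E. coli, competed against a K5/K8/K12/K16-acetylated biotin-H4 peptide. Proximity signal between bead pairs after room-temperature incubations gave concentration-response curves, from which IC50 was derived.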

[2] = system: human SKM-1 acute myeloid leukemia cells; assay: SKM-1 antiproliferation cell-based assay (ATPlite); conditions: Homo sapiens, SKM-1, SKM-1 antiproliferation assay
Method in brief: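 Log-phase cells in RPMI 1640/15% FBS were seeded at 34722 cells/mL and exposed for 4 days to nine-concentration DMSO serial dilutions in triplicate. Viability was read as ATP luminescence (ATPlite 1step), and IC50 values came from variable-slope non-linear regression.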

| Compound | IC50 [1] [nM] | GI50 [2] [nM] |
| --- | --- | --- |
| CC(C)Oc1cc(-c2cc(F)cc(-c3cccc(N4CCN(C(C)(C)C)CC4)c3)c2O)cc(Cl)c1-n1ccn(C)c1=O [Example 937, 1-(3″-(4-(tert-butyl)piperazin-1-yl)-3-chloro-5′-fluoro-2′-hydroxy-5-isopropoxy-[1,1′:3′,1″-terphenyl]-4-yl)-3-methyl-1,3-dihydro-2H-imidazol-2-one] | 10 to 100 | 30 to 300 |
| [2H]C([2H])([2H])n1ccn(-c2ccc(-c3cc(F)cc(-c4cnc(OC)c(N5CCN(C(C)(C)C)CC5)c4)c3O)cc2Cl)c1=O [Example 938, 1-(3′-(5-(4-(tert-butyl)piperazin-1-yl)-6-methoxypyridin-3-yl)-3-chloro-5′-fluoro-2′-hydroxy-[1,1′-biphenyl]-4-yl)-3-(methyl-d3)-1,3-dihydro-2H-imidazol-2-one] | 1 to 10 | 0.3 to 30 |
| COc1ncc(-c2cc(F)cc(-c3ccc(-n4ccn(C)c4=O)c(F)c3)c2O)cc1N1CCN(C(C)(C)C)CC1 [Example 939, 1-(3′-(5-(4-(tert-butyl)piperazin-1-yl)-6-methoxypyridin-3-yl)-3,5′-difluoro-2′-hydroxy-[1,1′-biphenyl]-4-yl)-3-methyl-1H-imidazol-2(3H)-one] | 1 to 10 | 0.3 to 30 |
| Cc1cc(-c2cc(F)cc(-c3cccc(N4CCN(C(C)(C)C)CC4)c3)c2O)ncc1-n1ccn(C)c1=O [Example 940, 1-(6-(3′-(4-(tert-butyl)piperazin-1-yl)-5-fluoro-2-hydroxy-[1,1′-biphenyl]-3-yl)-4-methylpyridin-3-yl)-3-methyl-1H-imidazol-2(3H)-one] | > 100 | 300 to 3000 |
| COc1ncc(-c2cc(F)cc(-c3ccc(-n4c(C)cn(C)c4=O)c(Cl)c3)c2O)cc1N1CCN(C(C)(C)C)CC1 [Example 941, 3-(3′-(5-(4-(tert-butyl)piperazin-1-yl)-6-methoxypyridin-3-yl)-3-chloro-5′-fluoro-2′-hydroxy-[1,1′-biphenyl]-4-yl)-1,4-dimethyl-1H-imidazol-2(3H)-one] | 1 to 10 | 0.3 to 30 |
| Cn1ccn(-c2ccc(-c3cc(F)cc(-c4cc(N5CCN(C(C)(C)C)CC5)ncn4)c3O)cc2Cl)c1=O [Example 942, 1-(3′-(6-(4-(tert-butyl)piperazin-1-yl)pyrimidin-4-yl)-3-chloro-5′-fluoro-2′-hydroxy-[1,1′-biphenyl]-4-yl)-3-methyl-1H-imidazol-2(3H)-one] | > 100 | 300 to 3000 |
| Cn1ccn(-c2ccc(-c3cc(F)cc(-c4cccc(N5CC6CNCC6C5)c4)c3O)cc2Cl)c1=O (stereo not drawn) [Example 943, 1-(3-chloro-5′-fluoro-3″-(hexahydropyrrolo[3,4-c]pyrrol-2(1H)-yl)-2′-hydroxy-[1,1′:3′,1″-terphenyl]-4-yl)-3-methyl-1,3-dihydro-2H-imidazol-2-one] | 1 to 10 | 0.3 to 30 |
| Cn1ccn(-c2ccc(-c3cc(F)cc(-c4cccc(N5CCN(C(C)(C)C)CC5)c4)c3O)nc2)c1=O [Example 944, 1-(6-(3′-(4-(tert-butyl)piperazin-1-yl)-5-fluoro-2-hydroxy-[1,1′-biphenyl]-3-yl)pyridin-3-yl)-3-methyl-1H-imidazol-2(3H)-one] | > 100 | 300 to 3000 |
| Cn1ccn(-c2ccc(-c3cc(F)cc(-c4cccc(N5CCN(C(C)(C)C)CC5)c4)c3O)cc2F)c1=O [Example 945, 1-(3″-(4-(tert-butyl)piperazin-1-yl)-3,5′-difluoro-2′-hydroxy-[1,1′:3′,1″-terphenyl]-4-yl)-3-methyl-1H-imidazol-2(3H)-one] | 1 to 10 | 0.3 to 30 |
| CC(C)N1CC2CN(c3cccc(-c4cc(F)cc(-c5ccc(-n6ccn(C)c6=O)c(Cl)c5)c4O)c3)CC2C1 (stereo not drawn) [Example 946, 1-(3-chloro-5′-fluoro-2′-hydroxy-3″-(5-isopropylhexahydropyrrolo[3,4-c]pyrrol-2(1H)-yl)-[1,1′:3′,1″-terphenyl]-4-yl)-3-methyl-1,3-dihydro-2H-imidazol-2-one] | 1 to 10 | 30 to 300 |
| COc1ncc(-c2cc(F)cc(-c3ccc(-n4ccn(C)c4=O)c(C)c3)c2O)cc1N1CCN(C(C)(C)C)CC1 [Example 948, 1-(3′-(5-(4-(tert-butyl)piperazin-1-yl)-6-methoxypyridin-3-yl)-5′-fluoro-2′-hydroxy-3-methyl-[1,1′-biphenyl]-4-yl)-3-methyl-1,3-dihydro-2H-imidazol-2-one] | 1 to 10 | 0.3 to 30 |
| Cc1cc(-c2cc(F)cc(-c3cccc(N4CCN(C(C)(C)C)CC4)c3)c2O)ccc1-n1ccn(C)c1=O [Example 949, 1-(3″-(4-(tert-butyl)piperazin-1-yl)-5′-fluoro-2′-hydroxy-3-methyl-[1,1′:3′,1″-terphenyl]-4-yl)-3-methyl-1,3-dihydro-2H-imidazol-2-one] | 1 to 10 | 0.3 to 30 |
| Cn1ccn(-c2ccc(-c3cc(F)cc(-c4cccc(N5CCN(C(C)(C)C)CC5)n4)c3O)cc2Cl)c1=O [Example 950, 1-(3′-(6-(4-(tert-butyl)piperazin-1-yl)pyridin-2-yl)-3-chloro-5′-fluoro-2′-hydroxy-[1,1′-biphenyl]-4-yl)-3-methyl-1H-imidazol-2(3H)-one] | > 100 | 300 to 3000 |
| Cn1ccn(-c2ccc(-c3cc(F)cc(-c4cccc(C5=CCN(C(C)(C)C)CC5)c4)c3O)cc2Cl)c1=O [Example 951, 1-(3″-(1-(tert-butyl)-1,2,3,6-tetrahydropyridin-4-yl)-3-chloro-5′-fluoro-2′-hydroxy-[1,1′:3′,1″-terphenyl]-4-yl)-3-methyl-1H-imidazol-2(3H)-one] | 1 to 10 | 0.3 to 30 |
| Cn1ccn(-c2c(O)cc(-c3cc(F)cc(-c4cccc(N5CCN(C(C)(C)C)CC5)c4)c3O)cc2Cl)c1=O [Example 952, 1-(3″-(4-(tert-butyl)piperazin-1-yl)-3-chloro-5′-fluoro-2′,5-dihydroxy-[1,1′:3′,1″-terphenyl]-4-yl)-3-methyl-1H-imidazol-2(3H)-one] | > 100 | 300 to 3000 |
| Cn1ccn(-c2ccc(-c3cc(F)cc(-c4cc(N5CCN(C(C)(C)C)CC5)ccn4)c3O)cc2Cl)c1=O [Example 953, 1-(3′-(4-(4-(tert-butyl)piperazin-1-yl)pyridin-2-yl)-3-chloro-5′-fluoro-2′-hydroxy-[1,1′-biphenyl]-4-yl)-3-methyl-1H-imidazol-2(3H)-one] | > 100 | 300 to 3000 |
| CC(C)N1CCC12CCN(c1cc(-c3cc(F)cc(-c4ccc(-n5ccn(C)c5=O)c(Cl)c4)c3O)cnc1N)C2 (stereo not drawn) [Example 954, 1-(3′-(6-amino-5-(1-isopropyl-1,6-diazaspiro[3.4]octan-6-yl)pyridin-3-yl)-3-chloro-5′-fluoro-2′-hydroxy-[1,1′-biphenyl]-4-yl)-3-methyl-1H-imidazol-2(3H)-one] | 1 to 10 | 0.3 to 30 |
| Cc1ncc(-c2cc(F)cc(-c3ccc(-n4ccn(C)c4=O)c(Cl)c3)c2O)cc1N1CC[C@@]2(CCCN2C(C)C)C1 [Example 955, (S)-1-(3-chloro-5′-fluoro-2′-hydroxy-3′-(5-(1-isopropyl-1,7-diazaspiro[4.4]nonan-7-yl)-6-methylpyridin-3-yl)-[1,1′-biphenyl]-4-yl)-3-methyl-1,3-dihydro-2H-imidazol-2-one] | 1 to 10 | 0.3 to 30 |
